# Experimental data taken from the supplement of paper PMC10307832.
# Legend:
# Assay in all cases: relative viability (nuclei count vs DMSO), 5 days (fraction); higher = more cells survive
# Elesclomol + Alpelisib = compound: CN(NC(=O)CC(=O)NN(C)C(=S)c1ccccc1)C(=S)c1ccccc1 [Elesclomol] + Cc1nc(NC(=O)N2CCC[C@H]2C(N)=O)sc1-c1ccnc(C(C)(C)C(F)(F)F)c1 [Alpelisib] (partner 2 µM)
# Procedure, shortened: (§1)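 Lung cancer cell lines in 1536-well plates got either a single drug or a fixed anchor-drug dose together with five library-drug doses (not always all listed) in √10 steps, by pin tool, on the day after seeding. Nuclei were counted after 5 days, and relative viability is the treated-to-vehicle ratio of nuclei counts. Values are medians of duplicate plates.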
# Elesclomol + Pemetrexed = compound: CN(NC(=O)CC(=O)NN(C)C(=S)c1ccccc1)C(=S)c1ccccc1 [Elesclomol] + Nc1nc2[nH]cc(CCc3ccc(C(=O)N[C@@H](CCC(=O)O)C(=O)O)cc3)c2c(=O)[nH]1 [Pemetrexed] (partner 0.2 µM)
# Procedure, shortened: as §1
# Elesclomol + Decitabine = compound: CN(NC(=O)CC(=O)NN(C)C(=S)c1ccccc1)C(=S)c1ccccc1 [Elesclomol] + Nc1ncn([C@H]2C[C@H](O)[C@@H](CO)O2)c(=O)n1 [Decitabine] (partner 2 µM)
# Procedure, shortened: as §1
# Elesclomol + Vorinostat = compound: CN(NC(=O)CC(=O)NN(C)C(=S)c1ccccc1)C(=S)c1ccccc1 [Elesclomol] + O=C(CCCCCCC(=O)Nc1ccccc1)NO [Vorinostat] (partner 1 µM)
# Procedure, shortened: as §1
# Elesclomol + Olaparib = compound: CN(NC(=O)CC(=O)NN(C)C(=S)c1ccccc1)C(=S)c1ccccc1 [Elesclomol] + O=C(c1cc(Cc2n[nH]c(=O)c3ccccc23)ccc1F)N1CCN(C(=O)C2CC2)CC1 [Olaparib] (partner 8 µM)
# Procedure, shortened: as §1
Cell Line,relative viability (Elesclomol + Alpelisib; first compound 0.003162 µM),relative viability (Elesclomol + Alpelisib; first compound 0.01 µM),relative viability (Elesclomol + Alpelisib; first compound 0.03162 µM),relative viability (Elesclomol + Alpelisib; first compound 0.1 µM),relative viability (Elesclomol + Pemetrexed; first compound 0.003162 µM),relative viability (Elesclomol + Pemetrexed; first compound 0.01 µM),relative viability (Elesclomol + Pemetrexed; first compound 0.03162 µM),relative viability (Elesclomol + Pemetrexed; first compound 0.1 µM),relative viability (Elesclomol + Decitabine; first compound 0.003162 µM),relative viability (Elesclomol + Decitabine; first compound 0.01 µM),relative viability (Elesclomol + Decitabine; first compound 0.03162 µM),relative viability (Elesclomol + Decitabine; first compound 0.1 µM),relative viability (Elesclomol + Vorinostat; first compound 0.003162 µM),relative viability (Elesclomol + Vorinostat; first compound 0.01 µM),relative viability (Elesclomol + Vorinostat; first compound 0.03162 µM),relative viability (Elesclomol + Vorinostat; first compound 0.1 µM),relative viability (Elesclomol + Olaparib; first compound 0.003162 µM),relative viability (Elesclomol + Olaparib; first compound 0.01 µM),relative viability (Elesclomol + Olaparib; first compound 0.03162 µM),relative viability (Elesclomol + Olaparib; first compound 0.1 µM)
SK-LU-1,0.987,0.674,0.294,0.1,1.01,0.889,0.625,0.521,0.679,0.575,0.481,0.468,0.83,0.659,0.471,0.336,0.468,0.373,0.378,0.249
NCI-H1437,0.886,0.61,0.341,0.283,0.317,0.249,0.224,0.243,0.602,0.493,0.438,0.337,0.74,0.411,0.322,0.334,0.555,0.461,0.379,0.359
NCI-H1734,0.722,0.588,0.625,0.131,0.436,0.507,0.234,0.11,0.483,0.445,0.188,0.101,0.859,0.592,0.207,0.101,0.586,0.519,0.165,0.0747
LK-2,0.843,0.254,0.137,0.107,,0.289,0.276,0.128,0.288,0.314,0.276,0.113,0.395,0.232,0.167,0.121,0.65,0.503,0.332,0.0869
HCC-15,0.931,0.645,0.559,0.236,0.237,0.23,0.24,0.187,0.623,0.478,0.343,0.206,0.81,0.776,0.645,0.265,0.646,0.631,0.536,0.217
HCC-366,0.437,0.491,0.359,0.0118,0.167,0.156,0.116,0.0342,0.39,0.31,0.0994,0.0263,0.371,0.228,0.173,0.0207,0.369,0.31,0.108,0.0162
NCI-H650,1.09,0.342,0.271,0.237,0.884,0.728,0.449,0.191,0.343,0.281,0.211,0.16,0.539,0.38,0.184,0.132,0.426,0.319,0.204,0.241
NCI-H2347,1.04,0.928,0.955,0.513,0.401,0.372,0.411,0.441,0.662,0.56,0.534,0.475,0.572,0.527,0.471,0.303,0.591,0.463,0.525,0.339
